From patent EP0184322A1, “Benzimidazoles” (SMITH KLINE & FRENCH LABORATORIES LIMITED, priority 1984, dated 1986) come the findings set out here.

For orientation: ED50 means the dose that gives a 50% effect, or the effect in half of the subjects.

The first assay deals with histamine stimulated gastric acid secretion. The experiment in a line: Rat lumen perfused stomach (modified Ghosh and Schild procedure). Conditions: i.d. (intraduodenal) administration. The assay is classed as in vivo. The source says: Using a modification of the procedure described by Ghosh and Schild (Br. J. Pharmacology, 13, 54, 1958), ED . values after either intraduodenal (i.d) or intravenous (i.v) administration were obtained as follows: […]
Compound `COc1ccc2[nH]c([S+]([O-])Cc3ncc(C)c(N4CCOCC4)c3Cl)nc2c1` (stereo not drawn) [Example 6, 2-(4-morpholino-3-chloro-5-methyl-2-pyridylmethylsulphinyl)--5-methoxy-(1H)-benzimidazole] registered an ED50 of 1.94 µmol/kg.
For the compound `COc1ccc2[nH]c([S+]([O-])Cc3ncc(C)c(N(C)C)c3Cl)nc2c1` (stereo not drawn) [Example 16, 2-(4-dimethylamino-3-chloro-5-methyl-2-pyridylmethylsulphi-nyl)-5-methoxy-(1H)-benzimidazole], the ED50 came to 1.46 µmol/kg.
Compound `COc1ccc2[nH]c([S+]([O-])Cc3ncc(C)c(N4CCCCC4)c3Cl)nc2c1` (stereo not drawn) [Example 8, 2-(4-piperidino-3-chloro-5-methyl-2-pyridylmethylsulphinyl)--5-methoxy-(1H)-benzimidazole] registered an ED50 of 2.38 µmol/kg.
Still for that read-out and setting: under `COc1ccc2[nH]c([S+]([O-])Cc3ncc(Br)c(N4CCCCC4)c3C)nc2c1` (stereo not drawn) [Example 22, 2-(4-piperidino-5-bromo-3-methyl-2-pyridylmethylsulphinyl)--5-methoxy-(1 H)-benzimidazole] stands 4.55 µmol/kg.

Staying with this assay, now noted: iv, i.v. administration.
Consider `COc1ccc2[nH]c([S+]([O-])Cc3ncc(C)c(N4CCCC4)c3Cl)nc2c1` (stereo not drawn) [Example 14, 2-(4-pyrrolidino-3-chloro-5-methyl-2-pyridylmethylsulphinyl)-5-methoxy-(1 H)-benzimidazole], for which the 50% effect level (ED50) was put at a dose of 0.82 µmol/kg.
Still for that read-out and setting: under `COc1ccc2[nH]c([S+]([O-])Cc3cc(N4CCCCC4)c(Br)cn3)nc2c1` (stereo not drawn) [Example 18, 2-(4-piperidino-5-bromo-2-pyridylmethylsulphinyl) - 5-methoxy-(1 H)-benzimidazole] stands 0.85 µmol/kg; under `COc1ccc2[nH]c([S+]([O-])Cc3nccc(N4CCCCC4)c3Br)nc2c1` (stereo not drawn) [Example 20, 2-(4-piperidino-3-bromo-2-pyridylmethylsulphinyl) - 5-methoxy-(1H)-benzimidazole], 0.86 µmol/kg; under `COc1ccc2[nH]c([S+]([O-])Cc3nccc(N4CCOCC4)c3Cl)nc2c1` (stereo not drawn) [Example 4, 2-(4-morpholino-3-chloro-2-pyridylmethyl-sulphinyl)-5-methoxy-(1 H)-benzimidazole], 1.17 µmol/kg.
Still for that read-out and setting: under `COc1ccc2[nH]c([S+]([O-])Cc3cc(N)c(Br)cn3)nc2c1` (stereo not drawn) [Example 2, 2-(4-amino-5-bromo-2-pyridylmethylsulphinyl)-5-methoxy-(1-H)-benzimidazole] stands 1.46 µmol/kg.
